Experimental data from ChEMBL document CHEMBL1146524, “Isolation of homodolastatin 16, a new cyclic depsipeptide from a Kenyan collection of Lyngbya majuscula” (J Nat Prod, 2003).
Values after ≈ are worked out from the molar mass of the structure shown. Starred links: 1 amine or outer side, 2 acyl side, 3 side chain; linkers in the order of their positions; H or OH if unused. Non-standard residues stand in square brackets, D forms with d. Residues, ends and D or L forms follow the SMILES beside them. X1 = CC(Cc1ccccc1)C(N[*:1])C(=O)[*:2]; X2 = CC(C)C(N[*:1])C(C)C(=O)[*:2]; dNMeV = CN[C@@H](C(=O)O)C(C)C; dHiv = CC(C)[C@@H](O)C(=O)O; Lac = C[C@H](O)C(=O)O

Assays:
[1] = Cytotoxicity against human WHCO6 cells after 48 hrs by MTT method; assay type: functional, cell-based; details: WHCO6, 48 h
ME-180 = experiment: Cytotoxicity against human ME180 cells after 48 hrs by MTT method; assay type: functional, cell-based; details: ME-180, 48 h
[2] = Cytotoxicity against human WHCO1 cells after 48 hrs by MTT method; assay type: functional, cell-based; details: WHCO1, 48 h
SK-MEL-5 = experiment: Cytotoxicity against human SK-MEL-5 cells after 48 hrs by MTT method; assay type: functional; details: SK-MEL-5, 48 h
SF-295 = experiment: Cytotoxicity against human SF295 cells after 48 hrs by MTT method; assay type: functional; details: SF-295, 48 h
NCI-H460 = experiment: Cytotoxicity against human NCI-H460 cells after 48 hrs by MTT method; assay type: functional; details: NCI-H460, 48 h
KM-20L2 = experiment: Cytotoxicity against human KM20L2 cells after 48 hrs by MTT method; assay type: functional; details: KM-20L2, 48 h

Row | Structure (SMILES) | IC50 [1] | IC50 (ME-180) | IC50 [2] | GI50 (SK-MEL-5) | GI50 (SF-295) | GI50 (NCI-H460) | GI50 (KM-20L2)
1 | CC[C@H](C)[C@H]1C(=O)N2CCC[C@H]2C(=O)NC(C(C)Cc2ccccc2)C(=O)N2CCC[C@H]2C(=O)NC(C(C)C)C(C)C(=O)OC(C)C(=O)N2CCC[C@H]2C(=O)O[C@H](C(C)C)C(=O)N1C (some centres not stated) [HOMODOLASTATIN 16] | 10.1 µg/mL (≈ 11300 nM) | 8.3 µg/mL (≈ 9290 nM) | 4.3 µg/mL (≈ 4810 nM) | – | – | – | –
2 | CC(C)C1NC(=O)[C@@H]2CCCN2C(=O)C(C(C)Cc2ccccc2)NC(=O)[C@@H]2CCCN2C(=O)[C@@H](C(C)C)N(C)C(=O)[C@@H](C(C)C)OC(=O)[C@@H]2CCCN2C(=O)[C@H](C)OC(=O)C1C (some centres not stated) [DOLASTATIN 16] (cyclo([Lac]P[dHiv][dNMeV]P[X1]P[X2])) | – | – | – | 3.3 ng/mL (≈ 3.75 nM) | 5.2 ng/mL (≈ 5.92 nM) | 0.96 ng/mL (≈ 1.09 nM) | 1.2 ng/mL (≈ 1.37 nM)
